Molecules are shown by their SMILES.

We go through seven compounds from patent publication US20260232629A1, “Covalent Degraders of Oncogenic Transcription Factors” (The Regents of the University of California, priority 2023, published 2026).

Assay [1] has as its target T1, pure human CTNNB1 protein (Homo sapiens, UniProt P35222).
T1 sequence (P35222 1-781): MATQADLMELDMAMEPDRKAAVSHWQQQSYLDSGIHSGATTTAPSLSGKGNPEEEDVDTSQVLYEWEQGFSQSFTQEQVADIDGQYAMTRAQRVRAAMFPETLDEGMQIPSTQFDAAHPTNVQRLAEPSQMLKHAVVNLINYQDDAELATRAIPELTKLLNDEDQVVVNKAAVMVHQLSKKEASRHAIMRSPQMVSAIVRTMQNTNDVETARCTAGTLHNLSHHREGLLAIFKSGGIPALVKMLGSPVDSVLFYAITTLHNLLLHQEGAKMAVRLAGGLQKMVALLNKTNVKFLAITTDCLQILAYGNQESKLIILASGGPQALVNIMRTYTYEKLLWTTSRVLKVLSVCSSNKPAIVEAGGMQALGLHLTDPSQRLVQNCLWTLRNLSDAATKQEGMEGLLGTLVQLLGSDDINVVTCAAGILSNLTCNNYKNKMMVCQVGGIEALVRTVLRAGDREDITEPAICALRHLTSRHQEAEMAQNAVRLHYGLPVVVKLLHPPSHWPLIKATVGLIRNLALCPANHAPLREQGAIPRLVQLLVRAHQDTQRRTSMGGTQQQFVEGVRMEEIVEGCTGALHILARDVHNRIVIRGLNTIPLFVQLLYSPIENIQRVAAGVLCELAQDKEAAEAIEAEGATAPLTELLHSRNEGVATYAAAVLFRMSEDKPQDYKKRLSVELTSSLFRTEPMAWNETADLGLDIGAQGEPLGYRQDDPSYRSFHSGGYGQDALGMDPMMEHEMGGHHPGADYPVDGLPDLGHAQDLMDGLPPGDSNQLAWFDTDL
In words: Gel-based ABPP with CTNNB1 pure protein (IA-Rhodamine displacement). The format is binding. To be noted: displacement of cysteine-reactive fluorescent probe. As to the method: CTNNB1 pure protein (0.1 μg/25 μL in PBS) was treated with either DMSO vehicle or covalent ligand at 37° C. for 30 min, and subsequently treated with 0.1 μM IA-Rhodamine (Setareh Biotech) for 1 h at RT in the dark. The reaction was stopped by addition of 4×reducing Laemmli SDS sample loading buffer (Alfa Aesar). After boiling at 95° C. for 5 min, the samples were separated on precast 4-20% Criterion TGX gels (Bio-Rad) and were analyzed by in-gel fluorescence using a ChemiDoc MP (Bio-Rad).

Assay [2] has as its system FLAG-tagged wild-type, C439S, C466S, C520S, or C619S mutant CTNNB1. Nature of the assay: Degradation of FLAG-tagged wild-type or cysteine-to-serine mutant CTNNB1 in cells. The format is cell-based. To be noted: FLAG-tagged CTNNB1 wild-type vs C439S. The text has this: We next sought to confirm the contributions of the cysteines targeted by EN83 in CTNNB1 to CTNNB1 degradation.

Assay [3] concerns the target T2, CTNNB1 with a N-terminal HiBiT tag (Homo sapiens, UniProt P35222).
T2 construct: N-terminal HiBiT tag incorporated into the endogenous loci of CTNNB1; host or cells: HEK293 (CTNNB1 HiBiT knock-in line)
T2 sequence (P35222 1-781): T1 sequence (P35222 1-781)
Nature of the assay: CTNNB1 HiBiT cell line assay (Nano-Glo HiBiT lytic detection). The settings on record: HEK293 cells expressing endogenous N-terminal HiBiT-tagged CTNNB1. The format is cell-based. As to the method:
To identify a covalent degrader of CTNNB1, we screened a library of 2100 cysteine-reactive covalent ligands consisting of acrylamides and chloroacetamides in HEK293 cells expressing CTNNB1 with a N-terminal HiBiT tag incorporated into the endogenous loci of CTNNB1. We identified 17 hits lowered CTNNB1 levels.
Covalent ligand screen and dose responses were conducted using Promega Nano-Glo HiBiT Lytic Detection System (N3040) and CellTiter-Glo 2.0 Assay (G9242). HiBiT cells were seeded into 96-well plates (Corning 3917) at 35,000 cells per 100 μL of media and were left overnight to adhere. Cells were treated with 25 μL of media containing 1:125 dilution from a 1000×DMSO compound stock and treated for either 6 hrs, 12 hrs, or 24 hrs. […] 125 μL of CTG or Lytic detection system reagents were added to each well. To assess the cells in the supernatant, half of the plates had the media removed prior to the addition of CTG or lytic detection system reagents. Plates were rocked for 15 minutes prior to their luminescence readout on the Tecan Spark Plate reader (30086376).

Assay [4] has as its target T3, CTNNB1 (Homo sapiens, UniProt P35222).
T3 construct: endogenous in cells; host or cells: HEK293T, HT29, COLO-201, SW480
T3 sequence (P35222 1-781): T1 sequence (P35222 1-781)
In words: Cellular thermal shift assay. The format is cell-based. The settings on record: cellular treatment.

In assay [5] the target is T4, proteome-wide cysteine-reactivity (C619 on CTNNB1) (Homo sapiens, UniProt P35222).
T4 construct: endogenous in cells
T4 sequence (P35222 1-781): T1 sequence (P35222 1-781)
In words: isoDTB-ABPP, proteome-wide cysteine-reactivity in cells. The format is cell-based. The text has this: We next wanted to confirm that EN83 engages CTNNB1 in cells. […] We next performed a mass spectrometry-based ABPP or isodesthiobiotin-ABPP (isoDTB-ABPP) to map overall proteome-wide cysteine-reactivity of EN83 in cells using previously established methods. […] Among the off-targets of EN83, none of the targets were within the Wnt signaling pathway, including AXIN1, BTRC, or GSK3A or GSK3B.

In assay [6] the target is T3, CTNNB1. In words: Western blotting of CTNNB1 in cells. To be noted: proteasome dependence. The format is cell-based. As to the method:
Pelleted cells are lysed with CST buffer containing protease inhibitor cocktail (Pierce A32955). Samples were centrifuged at 20,000 g for 20 min at 4° C. to remove cell debris. Samples' protein content was normalized to run 30 μg per well. Samples were then boiled for 8 min at 90° C. after addition of 4×reducing Laemmli SDS sample loading buffer (Alfa Aesar) and ran on precast 4-20% Criterion TGX gels (Bio-Rad).
Antibodies to CTNNB1 (Cell Signaling Technology, 8814S), GAPDH (Proteintech Group Inc., 60004-1-Ig or Cell Signaling Technology, 14C10), and DDDDK tag (Abcam, ab205606) were diluted per recommended manufacturers' procedures. Proteins were resolved by SDS/PAGE and transferred to nitrocellulose membranes using the BioRad system (1704271 and 1704150). Blots were blocked with 5% BSA in Tris-buffered saline containing Tween 20 (TBST) solution for 1 hour at room temperature, washed in TBST, and probed with primary antibody diluted in recommended diluent per manufacturer overnight at 4° C. Following washes with TBST, the blots were incubated in the dark with secondary antibodies purchased from Ly-Cor and used at 1:10,000 dilution in 5% BSA in TBST at room temperature. Blots were visualized using an Odyssey Li-Cor scanner after additional washes. If additional primary antibody incubations were required the membrane was stripped using ReBlot Plus Strong Antibody Stripping Solution (EMD Millipore, 2504), washed and blocked again before being reincubated with primary antibody.

Assay [7] deals with T3, CTNNB1. In words: Alkyne probe enrichment of CTNNB1 from cells. The format is cell-based. To be noted: in cells; GAPDH as unrelated target.
A further assay deals with T5, CTNNB1 pure protein (Homo sapiens, UniProt P35222).
T5 sequence (P35222 1-781): T1 sequence (P35222 1-781)
In words: NF686 probe labeling on CTNNB1 pure protein. To be noted: alkyne probe, click to fluorescent azide, in-gel fluorescence. The format is binding. As to the method:
CTNNB1 pure protein (0.2 μg/50 μL in PBS) was treated with either DMSO vehicle or NF686 at 37° C. for 30 min. Click reagents Azide-Fluor 545 (Click Chemistry Tools, Inc. AZ109-5), Copper (II) Sulfate, and TBTA (TCI Chemicals, T2993) were added to have a final concentration of 21.8 μM, 873.4 μM, and 47.2 μg/mL, respectively, for 1 hr at RT in the dark. The reaction was stopped by addition of 4×reducing Laemmli SDS sample loading buffer (Alfa Aesar). After boiling samples at 95° C. for 5 min, the samples were separated on precast 4-20% Criterion TGX gels (Bio-Rad). Probe-labeled proteins were analyzed by in-gel fluorescence using a ChemiDoc MP (Bio-Rad).

On to `COc1ccc(OC)c(C2CCCN2C(=O)CCl)c1` (racemic) [EN83], for which, in assay [1], the “binding to CTNNB1 by gel-based ABPP” value was “dose-responsively displaced cysteine-reactive fluorescent probe labeling of pure human CTNNB1 protein”. In addition, in assay [2], the “effect of cysteine mutation on CTNNB1 degradation” value was “mutation of C466, C520, or C619, but not C439, to serines significantly attenuated CTNNB1 degradation in cells”. Moreover, in assay [3], the “CTNNB1 HiBiT levels” value is reported as “dose-responsive CTNNB1 loss that was significantly attenuated by proteasome or NEDDylation inhibition”. Moreover, the “thermal stability of CTNNB1 in cells” value at CTNNB1 [4] is “significant thermal destabilization of CTNNB1 in cells”. Moreover, the “number of other targets significantly engaged by over 50%” value in assay [5] (among 8251 cysteines detected and quantified, three biological replicates) is listed as 139. The proteome-wide selectivity result in assay [5] (isoDTB-ABPP in cells) is “only moderately selective”. Moreover, the “engagement of CTNNB1 cysteine in cells” value in assay [5] (isoDTB-ABPP, three biological replicates) is “significantly engaged C619 on CTNNB1”.
On to `CCC(=O)N1CCCC1c1cc(OC)ccc1OC` (stereo not drawn) [NF602, 1-(2-(2,5-dimethoxyphenyl)pyrrolidin-1-yl)propan-1-one], for which the “binding to CTNNB1 by gel-based ABPP” value in assay [1] is listed as “does not show binding to CTNNB1”. The “CTNNB1 HiBiT levels” value in assay [3] is listed as “does not alter CTNNB1 levels”. Further, the “CTNNB1 protein levels by Western blotting” value (“CTNNB1 protein levels” for short) at CTNNB1 [6] is reported as “does not alter CTNNB1 levels”.
Regarding `C#CCCCNC(=O)c1ccc(OC)c([C@@H]2CCCN2C(=O)CCl)c1` [NF686, (S)-3-(1-(2-chloroacetyl)pyrrolidin-2-yl)-4-methoxy-N-(pent-4-yn-1-yl)benzamide], the “enrichment of CTNNB1 from cells with alkyne probe” value on CTNNB1 [7] is reported as “CTNNB1 could be enriched from cells with the probes without enriching unrelated targets such as GAPDH”. Besides, on CTNNB1 pure protein, the “direct probe labeling of pure CTNNB1 protein” value is given as “direct covalent dose-responsive probe labeling of pure CTNNB1 protein”.
Regarding `COc1ccc(C(F)(F)F)cc1C1CCCN1C(=O)CCl` (stereo not drawn) [NF740, 2-chloro-1-(2-(2-methoxy-5-(trifluoromethyl)phenyl)pyrrolidin-1-yl)ethan-1-one], the “binding to CTNNB1 by gel-based ABPP” value in assay [1] is listed as “tolerated”. In addition, in assay [3], the “CTNNB1 HiBiT levels” value is given as “lowering CTNNB1 HiBiT levels in HEK293 cells in a dose-responsive manner”. For the same compound, the “CTNNB1 protein levels” value on CTNNB1 [6] was “confirmed to be proteasome-dependent”.
With `COc1ccc(C(F)(F)F)c(C2CCCN2C(=O)CCl)c1` (stereo not drawn) [NF741, 2-chloro-1-(2-(5-methoxy-2-(trifluoromethyl)phenyl)pyrrolidin-1-yl)ethan-1-one], the “binding to CTNNB1 by gel-based ABPP” value in assay [1] is “tolerated”. For the same compound, the “CTNNB1 HiBiT levels” value in assay [3] was “lowering CTNNB1 HiBiT levels in HEK293 cells in a dose-responsive manner”. The “CTNNB1 protein levels” value at CTNNB1 [6] is on record as “confirmed to be proteasome-dependent”.
Take `COc1ccc(C(F)(F)F)c(C2CCCN2C(=O)/C=C/C(=O)c2ccccc2)c1` (stereo not drawn) [NF764, (E)-1-(2-(5-methoxy-2-(trifluoromethyl)phenyl)pyrrolidin-1-yl)-4-phenylbut-2-ene-1,4-dione]: the “binding to CTNNB1 by gel-based ABPP” value in assay [1] is “improved CTNNB1 binding”. Also, in assay [3], the “CTNNB1 HiBiT levels” value was “more potent loss of CTNNB1 HiBiT levels”. Besides, the “CTNNB1 protein levels” value on CTNNB1 [6] is reported as “lowered CTNNB1 protein levels in cells in a proteasome-dependent manner”.
The like results for `COc1ccc(C(F)(F)F)cc1C1CCCN1C(=O)/C=C/C(=O)c1ccccc1` (stereo not drawn) [NF765, (E)-1-(2-(2-methoxy-5-(trifluoromethyl)phenyl)pyrrolidin-1-yl)-4-phenylbut-2-ene-1,4-dione] were, in that order, “improved CTNNB1 binding”, “more potent loss of CTNNB1 HiBiT levels” and “lowered CTNNB1 protein levels in cells in a proteasome-dependent manner”.
